Data reported in ChEMBL document CHEMBL1156879, “Ganodermasides A and B, two novel anti-aging ergosterols from spores of a medicinal mushroom Ganoderma lucidum on yeast via UTH1 gene” (Bioorg Med Chem, 2010).
Activity calls are given as the source filed them. The calls are words filed in the database; no cut-off is given here.

Tests used:
Format in all cases: functional, organism-based
Saccharomyces cerevisiae [1] = assay: Effect on SIRT1 expression in Saccharomyces cerevisiae K6001 by SIRT1/Sir2 deacetylase fluorometric assay
Saccharomyces cerevisiae [2] = assay: Effect on SOD1 gene expression in Saccharomyces cerevisiae K6001 at 10 uM by RT-PCR
Saccharomyces cerevisiae [3] = assay: Antiaging effect in Saccharomyces cerevisiae K6001 expressing skn7 mutant assessed as extension of replicative life span after 2 days
Saccharomyces cerevisiae [4] = assay: Effect on SOD2 gene expression in Saccharomyces cerevisiae K6001 at 10 uM by RT-PCR
Saccharomyces cerevisiae [5] = assay: Antiaging effect in Saccharomyces cerevisiae K6001 expressing uth1 mutant assessed as extension of replicative life span after 2 days
Saccharomyces cerevisiae [6] = assay: Antiaging effect in Saccharomyces cerevisiae K6001 assessed as extension of replicative life span at 10 uM after 2 days
Saccharomyces cerevisiae [7] = assay: Antiaging effect in Saccharomyces cerevisiae K6001 assessed as extension of replicative life span after 2 days

Row | Activity (Saccharomyces cerevisiae [1]) | SMILES | Activity (Saccharomyces cerevisiae [2]) | Activity (Saccharomyces cerevisiae [3]) | Activity (Saccharomyces cerevisiae [4]) | Activity (Saccharomyces cerevisiae [5]) | Activity (Saccharomyces cerevisiae [6]) | Activity (Saccharomyces cerevisiae [7])
1 | inactive | CC(C)[C@@H](C)/C=C/[C@@H](C)[C@H]1C[C@@H](O)C2=C3C=CC4=CC(=O)CC[C@]4(C)C3CC[C@@]21C (some centres undefined) | inactive | inactive | inactive | inactive | Active | 
2 |  | Oc1ccc(/C=C/c2cc(O)cc(O)c2)cc1 |  |  |  |  | Active | Dose-dependent effect
3 | inactive | CC(C)[C@@H](C)/C=C/[C@@H](C)[C@H]1C[C@H](O)C2=C3C=CC4=CC(=O)CC[C@]4(C)C3CC[C@@]21C (some centres undefined) | inactive | inactive | inactive | inactive | Active | 
